For data set [1], the system named is human epithelial cervical cancer cell line KB 3-1. It counts as cell-based. The procedure: (§1) The human epithelial cervical cancer cell line KB 3-1 with two subclones (KB 3-1 (MDR1^+++) and KB 3-1 (MDR1^+++, CYP3A5)) and the bladder cancer cell line RT112, also with subclone (RT112 (MDR1^+, UGT1A1)), were cultured in Dulbecco's Modified Eagle Medium (DMEM) including 3.7 g/l NaHCO3, 4.5 g/l D-Glucose, 1.028 g/l N-Acetyl-L-Alanyl-L-glutamine and supplemented with 10% fetal bovine, 1 mM Na-pyruvate and 1% non-essential amino acids. The human colon cancer cell line LS174T was cultured in Dulbecco's modified Eagle medium containing L-glutamine, pyridoxine hydrochloride and 25 mM Hepes buffer without phenol red, supplemented with 10% fetal bovine, 1 mM Na-pyruvate and 1% non-essential amino acids. All cells were incubated at 37° C. with 5% CO2 in a humidified atmosphere.
(§2) Lower concentrated dilutions were prepared in PBS and cell culture medium.
(§3) Cells were seeded in 96-well culture plates 24 h prior to treatment. With respect to differential growth rates KB 3-1 and RT112 cells were seeded at 700 cells/well, RT112 (MDR1^+, UGT1A1) at 1000 cells/well and KB 3-1 (MDR1^+++) and KB 3-1 (MDR1^+++, CYP3A5) at 1200 cells/well. LS174T were seeded at 1.0×10^4 cells/well. […] Four well were treated with the same drug dilution. Cells were incubated for 3 days at 37° C. in a humidified 5% CO2 atmosphere.
(§4) A commercially available MTS assay system (Promega, Madison, USA) was used to determine growth inhibition and cell death according to the instructions of the manufacturer. Three days after adding the drugs, 20 μl of the combined MTS/PMS solution was added to each well of the 96-well culture plate. The plate was incubated for at least 45 min at 37° C. in a humidified 5% CO2 atmosphere and the absorbance at 492 nm was measured. The absorbance values of untreated control cells on each plate were set as 100% growth and used to calculate the remaining growth of drug treated cells. Untreated cells on the culture plates served as controls for unaffected growth and survival.
(§5) The drug concentration effecting a 50% inhibition of cell growth was defined as the IC50.

In data set [2] the test system is bladder cancer cell line RT112. The data set can be described thus: MTS cytotoxicity assay, growth inhibition, RT112. It counts as cell-based, human. As to conditions: RT112, 3 days treatment. The procedure: as §1, §2
Cells were seeded in 96-well culture plates 24 h prior to treatment. […]
A commercially available MTS assay system (Promega, Madison, USA) was used to determine growth inhibition and cell death according to the instructions of the manufacturer. […] The plate was incubated for at least 45 min at 37° C. in a humidified 5% CO2 atmosphere and the absorbance at 492 nm was measured. The absorbance values of untreated control cells on each plate were set as 100% growth and used to calculate the remaining growth of drug treated cells. […]
(Tetrazolium dyes change colour on reduction, which living cells bring about.)

Data set [3] deals with KB 3-1 (MDR1^+++, CYP3A5) cells. The protocol:
as §1, §2, §3, §4, §5

The test system of data set [4] is RT112 (MDR1, UGT1A1) cells. As to conditions: for IC50 (50% inhibition of cell growth): RT112 (MDR1, UGT1A1), 3 days treatment. The protocol:
as §1, §2, §3, §4, §5

The test system of another data set is KB 3-1 (MDR1^+++) cells. The protocol:
as §1, §2, §3, §4, §5

The test system of data set [5] is human colon cancer cell line LS174T. Put plainly: MTS cytotoxicity assay, growth inhibition, LS174T. The class given is cell-based. Conditions: for IC50 (50% inhibition of cell growth): LS174T, 3 days treatment. The protocol: as §1, §2, §3, §4, §5
The nature of data set [6]: Clinical study of peak plasma digoxin levels at steady state by MDR1 3435C>T genotype. The class given is in vivo, human. As to conditions: 14 healthy volunteers, oral digoxin, p=0.006 Mann Whitney U test. An excerpt: Furthermore, the influence of the MDR1 genotype on intestinal uptake-related pharmacokinetics of digoxin was investigated in a clinical study at the University Medical Center, Charite in Berlin. Maximal digoxin blood levels (Cmax) at steady state were correlated with the MDR1 3435C>T genotype 14 healthy volunteers after oral application of digoxin. […] (p=0.006, Mann Whitney U test) and reflects the impact of this polymorphism on digoxin pharmacokinetics.

For a further data set, the system named is MRP1 mRNA. The data set can be described thus: MRP1 mRNA content in duodenal biopsies before and after rifampicin. The class given is in vivo, human. As to conditions: healthy volunteers.
The conditions of data set [7]: mass balance studies; cited from earlier work.
The conditions of data set [8]: irinotecan therapy, dose-limiting toxicity; cited from earlier work.
For data set [9] the following is noted: within the first 60 days of treatment, colorectal cancer trials; cited from earlier work.

“Also recorded” adds a separate entry of the source. Like-named read-outs stand apart in the source and are kept apart here.

For the compound `COc1ccc(CCN(C)CCC[C@](C#N)(c2ccc(OC)c(OC)c2)C(C)C)cc1OC` [R-Verapamil], in [1], the “effect of addition of R-Verapamil on CPT-11 and SN-38 sensitivity” value is “only marginal effects”.

In the case of `CCc1c2c(nc3ccc(O)cc13)-c1cc3c(c(=O)n1C2)COC(=O)[C@]3(O)CC` [SN-38, 7-ethyl-10-hydroxycamptothecin], in data set [1], the “IC50 (50% inhibition of cell growth)” value came to 0.025 µg/mL and the “IC50 with R-Verapamil” value was determined as 15 ng/m. In addition, the “IC50 (50% inhibition of cell growth)” value in [2] is 0.004 µg/mL. Moreover, the “IC50 (50% inhibition of cell growth)” value in data set [3] is greater than 0.2 µg/mL. In addition, in data set [4], the “higher resistance of RT112 (MDR1, UGT1A1) relative to RT112” value is on record as 19 fold and the “IC50 (50% inhibition of cell growth)” value was found to be 0.075 µg/mL. In addition, in the data set with KB 3-1 (MDR1^+++) cells, the “IC50 (50% inhibition of cell growth)” value worked out at 0.2 µg/mL, the “higher sensitivity after inhibition of MDR1 transport function with R-Verapamil” value came to 10 fold, the “increase of IC50 relative to KB 3-1” value is reported as “at least 8 times” and the “sensitivity with R-Verapamil” value is “as sensitive as KB 3-1 cells”. The “IC50 (50% inhibition of cell growth)” value in data set [5] turned out to be 0.005 µg/mL. The “efficacy relative to CPT-11 (growth inhibition and cell death)” value in data set [5] (stated for LS174T, RT112 and KB 3-1 together) amounted to 1000 fold.

On to `C[C@H]1O[C@@H](O[C@H]2[C@@H](O)C[C@H](O[C@H]3[C@@H](O)C[C@H](O[C@H]4CC[C@@]5(C)[C@H](CC[C@@H]6[C@@H]5C[C@@H](O)[C@]5(C)[C@@H](C7=CC(=O)OC7)CC[C@]65O)C4)O[C@@H]3C)O[C@@H]2C)C[C@H](O)[C@@H]1O` [digoxin], for which the “Maximal digoxin blood levels (Cmax) at steady state, homozygous T vs C/C MDR1 3435C>T genotype” value in data set [6] is on record as “statistically significantly different; also recorded: statistically significantly lower”.

`CO[C@H]1/C=C/O[C@@]2(C)Oc3c(C)c(O)c4c(O)c(c(/C=N/N5CCN(C)CC5)c(O)c4c3C2=O)NC(=O)/C(C)=C\C=C\[C@H](C)[C@H](O)[C@@H](C)[C@@H](O)[C@@H](C)[C@H](OC(C)=O)[C@@H]1C` [rifampicin]: the “effect of rifampicin treatment on MRP1 mRNA expression” value with MRP1 mRNA was “no effect”.

For irinotecan [CPT-11], the “total dose excreted in the feces” value in data set [7] is recorded as 64%. Besides, the “IC50 with R-Verapamil” value worked out at 4.5 µg/mL in data set [1] (KB 3-1, 3 days, with R-Verapamil 10 μg/ml) and 10 µg/mL in the data set on KB 3-1 (MDR1^+++) cells (KB 3-1 (MDR1+++), 3 days, with R-Verapamil 10 μg/ml). The “IC50 (50% inhibition of cell growth)” value in data set [1] (KB 3-1, 3 days, without R-Verapamil) is 5 µg/mL; in data set [2], 2.5 µg/mL; in data set [4], 4 µg/mL; in the data set on KB 3-1 (MDR1^+++) cells (KB 3-1 (MDR1+++), 3 days, without R-Verapamil), 85 µg/mL; in data set [5], 1.5 µg/mL. For the same compound, the “diarrhea, occurrence in patients” value in [8] is recorded as “up to 88%”. The “increase of irinotecan toxicity-related mortality” value in [9] is given as roughly 3 times. Also, the “IC50 of RT112 (MDR1, UGT1A1) compared to RT112 cells” value in [4] (RT112 (MDR1, UGT1A1) vs RT112, in words) is listed as “two-times higher”.
